Measured values published in patent US20260240976A1, “T[…] VACCINES BASED ON VALIDATED TARGET EPITOPES” (Deutsches Krebsforschungszentrum Stiftung des öffentlichen …, priority 2023, published 2026).

How the values were obtained:
[1] = test system: peptide-specific T cell cultures; assay: T cell phenotyping and intracellular cytokine staining (IFN-gamma, TNF-alpha); assay type: cell-based, human; design: key: +: cytokine: Immunogenicity of the peptide shown by intracellular cytokine staining (IFN-gamma, TNF-alpha); +*: *highlights data from published resources.; *highlights data from published resources
Protocol: To characterize and quantify the responsive cells upon peptide stimulation, the peptide-specific T cell cultures with positive ELISpot results were further analyzed with T cell phenotyping and intracellular cytokine staining (ICS) assessed by flow cytometry.
The cells of the respective continued short-term T cell culture as well as the DMSO-stimulated and an unresponsive T cell line were harvested into 2 mL reaction tubes and centrifuged at 400×g for 10 min. The supernatant was discarded and the pellet of the unresponsive T cell line was resuspended in 100 μL ELISpot medium and used as unstimulated and unstained control. The pellets of the responsive and the DMSO-stimulated T cell lines were resuspended in 200 μL ELISpot medium and split equally into two wells of a V-bottom 96-well plate. One well of the responsive T cell lines was re-stimulated with 10 μg/mL of its specific peptide while the other well was mock stimulated with 0.1% (v/v) DMSO. As positive control, one well of the DMSO-stimulated T cell line was activated by treatment with 20 ng/ml Phorbol 12-myristate 13-acetate and 1 μM lonomycin. Then, 1:10 diluted GolgiStop (containing monensin) and 1:15 diluted GolgiPlug (containing brefeldin A) were added to all wells to inhibit intracellular transport processes. Monensin inhibits the trans-Golgi transport, while brefeldin A inhibits transport between the ER and the Golgi (Chardin and McCormick, 1999; Mollenhauer et al., 1990). The stimulated cells were incubated for 5 h at standard culture conditions.
After incubation, the cells were resuspended, centrifuged at 400×g for 5 min and the supernatant was discarded. Then, the cells were resuspended in 50 μL cold staining buffer (unstained) or 50 μL cold staining buffer containing the phenotyping antibodies against CD3, CD4, CD8 and the LIVE/DEAD™ Fixable Near-IR Dead Cell Stain (unstimulated and stimulated) and incubated at 4° C. for 30 min. After the surface staining, the cells were washed twice with 200 μL staining buffer and centrifugation at 1400 rpm, followed by fixation with 1% paraformaldehyde (PFA) solution for 15 min at 4° C. All following centrifugation steps were carried out at 1400 rpm for 5 min. After fixation, the cells were again washed twice with 200 μL cold staining buffer and were then resuspended in 100 μL 1× perm/wash buffer diluted in PBS (provided is 10×) for 15 min at 4° C. for cell membrane permeabilization. Subsequently, the plate was centrifuged and the supernatant was discarded. The cells were resuspended in 50 μL perm/wash buffer diluted in PBS (unstained) or 50 μL perm/wash buffer containing the intracellular cytokine antibodies against IFNγ, TNFα and granzyme B (unstimulated and stimulated) for 30 min at 4° C. After intracellular cytokine staining, the cells were washed twice with 200 μL 1× perm/wash buffer. Then 100 μL fix/perm solution (provided in the BD Cytofix/Cytoperm kit) were added per well. After 20 min of incubation at 4° C., the cells of each well were washed twice with 200 μL 1× perm/wash buffer before being resuspended in 100 μL staining buffer and stored at 4° C. overnight.
OneComp eBeads™ (eBeads) and ArC™ Amine Reactive Compensation beads (ArC beads) were stained as compensation controls. For each antibody, 50 μL of the eBeads suspension were stained with the same dilution as used for staining the cells. The ArC beads were stained with 1 μL LIVE/DEAD™ Fixable Near-IR Dead Cell Stain stock solution in 50 μL staining buffer. The beads were incubated at 4° C. for 30 min and were then washed two times with 1 mL staining buffer and centrifugation at 400×g. Finally, the stained beads were resuspended in 400 μL staining buffer, one drop of ArC™ negative beads was added to the labelled ArC beads, and all beads were stored at 4° C. overnight.
On the next day, the samples and the single stained compensation controls were acquired at a BD FACS Canto™ II analyzer using the BD FACS Diva Software Version 6. […]

[2] = test system: short-term antigen-specific T cell lines generated from PBMCs; assay: Interferon-γ ELISpot assay on short-term antigen-specific T cell lines; assay type: cell-based, human; conditions: for rates of immunoactivation in PBMC samples, CD8 T cell responses and/or numbers of HPV16 positive cell lines presenting the peptide as HLA-complexes: comparison among the peptides in Table 1

“7 (TTDLYCYEQ; Human papillomavirus 16) [compound 7]” was tested, and the “cytokine: Immunogenicity of the peptide shown by intracellular cytokine staining (IFN-gamma, TNF-alpha)” value (from here on “cytokine: Immunogenicity”) ([1]; HLA restriction A01) was “+” and the “ELISpot: Immungenicity of the peptide shown by IFN-gamma ELISPOT analysis” value (shortened to “ELISpot: Immungenicity”) ([2]; HLA restriction A01) was “+”.

In the case of “3 (TIHDIILQCVY; Human papillomavirus 16) [compound 3]”, the “cytokine: Immunogenicity” value ([1]; HLA restriction A01) is reported as “+” and the “ELISpot: Immungenicity” value ([2]; HLA restriction A01) is reported as “+”.

With “99 (RPRKLPQLCTE; Human papillomavirus 16) [compound 99]” the “cytokine: Immunogenicity” value ([1]; HLA restriction B07) was “+” and the “ELISpot: Immungenicity” value ([2]; HLA restriction B07) was “+”.

For “108 (AFRDLCIVY; Human papillomavirus 16) [compound 108]”, the “cytokine: Immunogenicity” value ([1]; HLA restriction B15) was “+”, the “ELISpot: Immungenicity” value ([2]; HLA restriction B15) was “+” and the “rates of immunoactivation in PBMC samples, CD8 T cell responses and/or numbers of HPV16 positive cell lines presenting the peptide as HLA-complexes” value (from here on “rates of immunoactivation”) [2] was “highest rates of immunoactivation in PBMC samples, to induce the strongest CD8 T cell responses, and/or shown to be presented as HLA-complexes by the highest numbers of HPV16 positive cell lines”.

“6 (DLQPETTDLY; Human papillomavirus 16) [compound 6]” was tested, and the “cytokine: Immunogenicity” value ([1]; HLA restriction A01) was “+” and the “ELISpot: Immungenicity” value ([2]; HLA restriction A01) was “+”.

“88 (DRAHYNIVTF; Human papillomavirus 16) [compound 88]” was tested, and the “cytokine: Immunogenicity” value ([1]; HLA restriction A24) was “+” and the “ELISpot: Immungenicity” value ([2]; HLA restriction A24) was “+”.

For “5 (EYRYYCYSLY; Human papillomavirus 16) [compound 5]”, the “cytokine: Immunogenicity” value ([1]; HLA restriction A01) was “+” and the “ELISpot: Immungenicity” value ([2]; HLA restriction A01) was “+”.

In the case of “59 (FAFRDLCIVYR; Human papillomavirus 16) [compound 59]”, the “cytokine: Immunogenicity” value ([1]; HLA restriction A11) is reported as “+” and the “ELISpot: Immungenicity” value ([2]; HLA restriction A11) is reported as “+”.

With “63 (AVCDKCLKFY; Human papillomavirus 16) [compound 63]” the “cytokine: Immunogenicity” value ([1]; HLA restriction A03) was “+”, the “cytokine: Immunogenicity” value ([1]; HLA restriction A11) was “+” and the “cytokine: Immunogenicity” value ([1]; HLA restriction B15) was “+”. The “ELISpot: Immungenicity” value ([2]; HLA restriction A03) was “+” and the “ELISpot: Immungenicity” value ([2]; HLA restriction B15) was “+”.

In the case of “84 (PYAVCDKCLKF; Human papillomavirus 16) [compound 84]”, the “cytokine: Immunogenicity” value ([1]; HLA restriction A24) is reported as “+” and the “ELISpot: Immungenicity” value ([2]; HLA restriction A24) is reported as “+”.

With “101 (NIRGRWTGRCM; Human papillomavirus 16) [compound 101]” the “cytokine: Immunogenicity” value ([1]; HLA restriction B07) was “+”, the “cytokine: Immunogenicity” value ([1]; HLA restriction B15) was “+” and the “ELISpot: Immungenicity” value ([2]; HLA restriction B07) was “+”. The “ELISpot: Immungenicity” value ([2]; HLA restriction B15) was “+”.

For “110 (GQAEPDRAHY; Human papillomavirus 16) [compound 110]”, the “cytokine: Immunogenicity” value ([1]; HLA restriction B15) was “+” and the “ELISpot: Immungenicity” value ([2]; HLA restriction B15) was “+”.

With “89 (HYNIVTFCC; Human papillomavirus 16) [compound 89]” the “cytokine: Immunogenicity” value ([1]; HLA restriction A24) was “+” and the “ELISpot: Immungenicity” value ([2]; HLA restriction A24) was “+”.

With “109 (LQPETTDLY; Human papillomavirus 16) [compound 109]” the “cytokine: Immunogenicity” value ([1]; HLA restriction B15) was “+” and the “rates of immunoactivation” value [2] was “highest rates of immunoactivation in PBMC samples, to induce the strongest CD8 T cell responses, and/or shown to be presented as HLA-complexes by the highest numbers of HPV16 positive cell lines”.

In the case of “74 (DLLIRCINCQK; Human papillomavirus 16) [compound 74]”, the “cytokine: Immunogenicity” value ([1]; HLA restriction A11) is reported as “+” and the “ELISpot: Immungenicity” value ([2]; HLA restriction A11) is reported as “+”.

In the case of “24 (DLLMGTLGIVC; Human papillomavirus 16) [compound 24]”, the “cytokine: Immunogenicity” value ([1]; HLA restriction A02) is reported as “+” and the “ELISpot: Immungenicity” value ([2]; HLA restriction A02) is reported as “+”.

For “92 (HYCYSLYGTTL; Human papillomavirus 16) [compound 92]”, the “cytokine: Immunogenicity” value ([1]; HLA restriction A24) was “+” and the “ELISpot: Immungenicity” value ([2]; HLA restriction A24) was “+”.

For “82 (EYRHYCYSL; Human papillomavirus 16) [compound 82]”, the “rates of immunoactivation” value [2] was “highest rates of immunoactivation in PBMC samples, to induce the strongest CD8 T cell responses, and/or shown to be presented as HLA-complexes by the highest numbers of HPV16 positive cell lines”.

In the case of “148 (FYSKISEY; Human papillomavirus 16) [compound 148]”, the “ELISpot: Immungenicity” value ([2]; HLA restriction B15) is reported as “+”.

“93 (YSLYGTTL; Human papillomavirus 16) [compound 93]” was tested, and the “ELISpot: Immungenicity” value ([2]; HLA restriction A24) was “+”.

“1 (ISEYRHYCY; Human papillomavirus 16) [compound 1]” was tested, and the “rates of immunoactivation” value [2] was “highest rates of immunoactivation in PBMC samples, to induce the strongest CD8 T cell responses, and/or shown to be presented as HLA-complexes by the highest numbers of HPV16 positive cell lines”.

In the case of “105 (KPLCDLLI; Human papillomavirus 16) [compound 105]”, the “ELISpot: Immungenicity” value ([2]; HLA restriction B07) is reported as “+”.

In the case of “121 (AVCDKCLKF; Human papillomavirus 16) [compound 121]”, the “ELISpot: Immungenicity” value ([2]; HLA restriction B15) is reported as “+”.

“13 (YMLDLQPET; Human papillomavirus 16) [compound 13]” was tested, and the “rates of immunoactivation” value [2] was “highest rates of immunoactivation in PBMC samples, to induce the strongest CD8 T cell responses, and/or shown to be presented as HLA-complexes by the highest numbers of HPV16 positive cell lines”.

“147 (AGQAEPDRAHY; Human papillomavirus 16) [compound 147]” was tested, and the “ELISpot: Immungenicity” value ([2]; HLA restriction B15) was “+”.

“81 (RAHYNIVTF; Human papillomavirus 16) [compound 81]” was tested, and the “ELISpot: Immungenicity” value ([2]; HLA restriction B15) was “+” and the “rates of immunoactivation” value [2] was “highest rates of immunoactivation in PBMC samples, to induce the strongest CD8 T cell responses, and/or shown to be presented as HLA-complexes by the highest numbers of HPV16 positive cell lines”.

In the case of “48 (ELQTTIHDI; Human papillomavirus 16) [compound 48]”, the “ELISpot: Immungenicity” value ([2]; HLA restriction A02) is reported as “+”.

With “9 (SEYRHYCYSLY; Human papillomavirus 16) [compound 9]” the “ELISpot: Immungenicity” value ([2]; HLA restriction A01) was “+” and the “ELISpot: Immungenicity” value ([2]; HLA restriction B15) was “+”.

For “123 (FYSKISEY; Human papillomavirus 16) [compound 123]”, the “ELISpot: Immungenicity” value ([2]; HLA restriction B15) was “+”.

With “71 (KFYSKISEY; Human papillomavirus 16) [compound 71]” the “ELISpot: Immungenicity” value ([2]; HLA restriction A03) was “+” and the “ELISpot: Immungenicity” value ([2]; HLA restriction A24) was “+”.

“96 (AHYNIVTF; Human papillomavirus 16) [compound 96]” was tested, and the “ELISpot: Immungenicity” value ([2]; HLA restriction A24) was “+”.

With “126 (SEYRHYCY; Human papillomavirus 16) [compound 126]” the “ELISpot: Immungenicity” value ([2]; HLA restriction B15) was “+”.

With “111 (QQLLRREVY; Human papillomavirus 16) [compound 111]” the “ELISpot: Immungenicity” value ([2]; HLA restriction B15) was “+”.

In the case of “136 (GTTLEQQYNK; Human papillomavirus 16) [compound 136]”, the “ELISpot: Immungenicity” value ([2]; HLA restriction A03) is reported as “+”.
